According to patent US20150105252A1, “SUBSTITUTED PYRAZOLES AS HERBICIDES” (E I DU PONT DE NEMOURS AND COMPANY, priority 2013, published 2015):

Experiments:
southern sandbur = assay: Test F preemergence; type: in vivo, Cenchrus echinatus
Text: (§1) Seeds of plant species selected from corn (Zea mays), soybean (Glycine max), velvetleaf (Abutilon theophrasti), lambsquarters (Chenopodium album), wild poinsettia (Euphorbia heterophylla), pigweed, palmer (palmer pigweed, Amaranthus palmeri), common waterhemp (Amaranthus rudis), surinam grass (Brachiaria decumbens), large crabgrass (Digitaria sanguinalis), crabgrass, Brazil (Brazilian crabgrass, Digitaria horizontalis), fall panicum (Panicum dichotomiflorum), giant foxtail (Setaria faberii), green foxtail (Setaria viridis), goosegrass (Eleusine indica), johnsongrass (Sorghum halepense), common ragweed (Ambrosia elation), barnyardgrass (Echinochloa crus-galli), southern sandbur (Cenchrus echinatus), arrowleaf sida (Sida rhombifolia), Italian ryegrass (Lolium multiflorum), dayflower, VA (Virginia (VA) dayflower, Commelina virginica), field bindweed (Convolvulus arvensis), cocklebur (common cocklebur, Xanthium strumarium), morningglory (Ipomoea coccinea), nightshade (eastern black nightshade, Solanum ptycanthum), kochia (Kochia scoparia), yellow nutsedge (Cyperus esculentus), and hairy beggarticks (Bidens pilosa), were planted into a silt loam soil and treated preemergence with test chemicals formulated in a non-phytotoxic solvent mixture which included a surfactant.
(§2) At the same time, plants from these crop and weed species and also horseweed (Canada horseweed, Conyza canadensis), smartweed (ladysthumb smartweed, Polygonum persicaria), waterhemp_RES1, (ALS & Triazine resistant common waterhemp, Amaranthus rudis), and waterhemp_RES2, (ALS & HPPD resistant common waterhemp, Amaranthus rudis) were treated with postemergence applications of test chemicals formulated in the same manner. Plants ranged in height from 2 to 18 cm for postemergence treatments (1- to 4-leaf stage). Treated plants and controls were maintained in a greenhouse for 14 to 21 days, after which time all species were compared to controls and visually evaluated. Plant response ratings, summarized in Table F, are based on a scale of 0 to 100 where 0 is no effect and 100 is complete control. A dash (-) response means no test result.

hairy beggarticks = assay: Test F preemergence; type: in vivo, Bidens pilosa
Text: as §1, §2

[1] = Preemergence, 31 g ai/ha, scale 0 to 100
[2] = Preemergence, 62 g ai/ha, scale 0 to 100
[3] = Preemergence, 125 g ai/ha, scale 0 to 100
[4] = preemergence, 8 g ai/ha, scale 0 to 100, 100 is complete control
[5] = preemergence, 16 g ai/ha, scale 0 to 100, 100 is complete control
[6] = Preemergence, 250 g ai/ha, scale 0 to 100

Structure (SMILES)	Plant response rating, Southern Sandbur (southern sandbur; [1])	Plant response rating, Southern Sandbur (southern sandbur; [2])	Plant response rating, Southern Sandbur (southern sandbur; [3])	Plant response rating, Southern Sandbur (southern sandbur; [4])	Plant response rating, Hairy Beggarticks (hairy beggarticks; [1])	Plant response rating, Hairy Beggarticks (hairy beggarticks; [2])	Plant response rating, Hairy Beggarticks (hairy beggarticks; [3])	Plant response rating, Hairy Beggarticks (hairy beggarticks; [4])	Plant response rating, Southern Sandbur (southern sandbur; [5])	Plant response rating, Hairy Beggarticks (hairy beggarticks; [5])	Plant response rating, Southern Sandbur (southern sandbur; [6])	Plant response rating, Hairy Beggarticks (hairy beggarticks; [6])
CCNC(=O)c1cc(CCCl)n(Cc2ccnc(C(F)(F)F)c2)n1 [Compound 179]	0	0	35	0	40	40	40	35	–	–	–	–
CCNC(=O)c1cc(CC)n(Cc2ccnc(C(F)(F)F)c2)n1 [Compound 196]	–	10	40	0	–	15	35	0	0	0	–	–
Cc1cc(C(=O)NC(C)C)nn1Cc1ccnc(C(F)(F)F)c1 [Compound 197]	–	0	15	0	–	25	20	0	0	0	–	–
CCc1cc(C(=O)NC2CC2)nn1Cc1ccnc(OCC(F)(F)F)c1 [Compound 200]	–	0	15	–	–	0	0	–	0	0	60	40
